From ChEMBL document CHEMBL1201862, “PubChem BioAssay data set” (2004)
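The compound was tested at five concentrations on cells cultured in 96-well plates, with a 48-hour exposure period. GI50: concentration for 50% inhibition of growth.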 Active and inactive are the calls of the source. No stated cut-off is given here; in the data, active = GI50 up to about 1.1 µM and inactive = higher.

Experiments:
Experiment in all cases: NCI-60 cell line screen, 48 h
[1] = system: CAKI-1
[2] = system: COLO 205
[3] = system: HOP-62
[4] = system: IGROV-1
[5] = system: KM12
[6] = system: LOX IMVI
[7] = system: NCI-H23
[8] = system: NCI-H460
[9] = system: SF-539
[10] = system: SK-MEL-2
[11] = system: SK-MEL-5
[12] = system: SN12C
[13] = system: SNB-19
[14] = system: SNB-75
[15] = system: SR
[16] = system: U-251
[17] = system: NCI/ADR-RES
[18] = system: A498

Row | SMILES | GI50 [1] | GI50 [2] | GI50 [3] | GI50 [4] | GI50 [5] | GI50 [6] | GI50 [7] | GI50 [8] | GI50 [9] | GI50 [10] | GI50 [11] | GI50 [12] | GI50 [13] | GI50 [14] | GI50 [15] | GI50 [16] | GI50 [17] | GI50 [18]
1 | C=C(N=[N+]=[N-])c1cn(C2CC(O)C(CO)O2)c(=O)[nH]c1=O (stereo not given) | > 100 µM (inactive) | > 100 µM (inactive) | > 100 µM (inactive) | > 100 µM (inactive) | > 100 µM (inactive) | > 100 µM (inactive) | > 100 µM (inactive) | > 100 µM (inactive) | > 100 µM (inactive) | > 100 µM (inactive) | > 100 µM (inactive) | > 100 µM (inactive) | > 100 µM (inactive) | > 100 µM (inactive) | > 100 µM (inactive) | > 100 µM (inactive) |  | 
2 | COc1ccc2[nH]c3c(C)c4cc[n+](C)cc4c(C)c3c2c1 |  |  | 0.358 µM (active) | 1.96 µM (inactive) | 0.964 µM (active) | 6.21 µM (inactive) | 0.521 µM (active) | 1.26 µM (inactive) | 0.24 µM (active) | 2.87 µM (inactive) | 1.18 µM (inactive) | 0.0834 µM (active) | 0.16 µM (active) | 0.121 µM (active) |  | 0.105 µM (active) | 19.3 µM (inactive) | 
3 | COc1ccc(Cc2c3cc(OC)c(OC)cc3cc[n+]2C)cc1 | > 48.3 µM (inactive) | 5.21 µM (inactive) | > 20.8 µM (inactive) | 38.7 µM (inactive) | 9.29 µM (inactive) | > 14.2 µM (inactive) | 8.3 µM (inactive) |  | 18.7 µM (inactive) | > 29.1 µM (inactive) | 21.2 µM (inactive) | 4.93 µM (inactive) | 6.81 µM (inactive) | 9.25 µM (inactive) | 2.2 µM (inactive) | 13.5 µM (inactive) |  | > 100 µM (inactive)
4 | Cc1c(/C=N/N(C)C)oc2c1cc(O)c1ncccc12 | 4.03 µM (inactive) | 35.8 µM (inactive) | 7.35 µM (inactive) | 14.3 µM (inactive) | 18.2 µM (inactive) | 4.5 µM (inactive) | 3.61 µM (inactive) | 4.5 µM (inactive) |  | 12.6 µM (inactive) | 6.9 µM (inactive) | 3.96 µM (inactive) | 14.1 µM (inactive) | 6.92 µM (inactive) | 2.77 µM (inactive) | 13.1 µM (inactive) |  | 25.8 µM (inactive)
5 | C/C(CCn1[nH]c(=O)ccc1=O)=N\NC(=O)C(=O)NN | > 100 µM (inactive) | > 100 µM (inactive) | > 100 µM (inactive) | > 100 µM (inactive) | > 100 µM (inactive) | > 100 µM (inactive) | > 100 µM (inactive) | > 100 µM (inactive) | > 100 µM (inactive) | > 100 µM (inactive) | > 100 µM (inactive) | > 100 µM (inactive) | > 100 µM (inactive) |  |  |  |  | 43.8 µM (inactive)
6 | Cc1cccc(C(=O)c2cccc3ccccc23)c1C(=O)O |  | 23.3 µM (inactive) | > 100 µM (inactive) | > 100 µM (inactive) |  | > 100 µM (inactive) | > 100 µM (inactive) | > 100 µM (inactive) | > 100 µM (inactive) | > 100 µM (inactive) | > 100 µM (inactive) | > 100 µM (inactive) | > 100 µM (inactive) | > 100 µM (inactive) |  | > 100 µM (inactive) |  | > 100 µM (inactive)
7 | O=[N+]([O-])c1ccc(COc2cccc3cccnc23)cc1 | 30.3 µM (inactive) | 17.2 µM (inactive) | 30 µM (inactive) | 22.5 µM (inactive) | 23.8 µM (inactive) | 11.7 µM (inactive) | 20 µM (inactive) | 1.23 µM (inactive) | 29.6 µM (inactive) | 14.6 µM (inactive) | 17.1 µM (inactive) | 22.6 µM (inactive) | 27.4 µM (inactive) | 26.9 µM (inactive) | 3.47 µM (inactive) | 10 µM (inactive) |  | 34.8 µM (inactive)
8 | CCC(C)CN1C(=O)NC(Cc2ccccc2)C1=O (stereo not given) | > 100 µM (inactive) |  | > 100 µM (inactive) |  | > 100 µM (inactive) | > 100 µM (inactive) | > 100 µM (inactive) | > 100 µM (inactive) | > 100 µM (inactive) | > 100 µM (inactive) |  | > 100 µM (inactive) | > 100 µM (inactive) | > 100 µM (inactive) | > 100 µM (inactive) | > 100 µM (inactive) |  | 
9 | Nc1nc(N)c2nc(-c3ccco3)cnc2n1 | 25 µM (inactive) | 65.6 µM (inactive) | 35.6 µM (inactive) | 43.1 µM (inactive) | 93.5 µM (inactive) | 30.9 µM (inactive) | 75 µM (inactive) | 35.3 µM (inactive) | 38.2 µM (inactive) |  | 52.5 µM (inactive) | 85.5 µM (inactive) | > 100 µM (inactive) | 28.4 µM (inactive) | 39.9 µM (inactive) | 34.1 µM (inactive) |  | 42.2 µM (inactive)
10 | O=C(O)[C@@H](NS(=O)(=O)c1ccc(F)cc1)c1ccccc1 | > 100 µM (inactive) | > 100 µM (inactive) | > 100 µM (inactive) | > 100 µM (inactive) |  | > 100 µM (inactive) | > 100 µM (inactive) | > 100 µM (inactive) | > 100 µM (inactive) | > 100 µM (inactive) | > 100 µM (inactive) | > 100 µM (inactive) | > 100 µM (inactive) | > 100 µM (inactive) |  | > 100 µM (inactive) |  | 
11 | COC(=O)[C@H]1N[C@@H](C(=O)OC)C23CCC[C@H]2CC[C@]1(C(OC)OC)C3 | > 100 µM (inactive) | 87.7 µM (inactive) | > 100 µM (inactive) | > 100 µM (inactive) | > 100 µM (inactive) | > 100 µM (inactive) | > 100 µM (inactive) | > 100 µM (inactive) | > 100 µM (inactive) | > 100 µM (inactive) | > 100 µM (inactive) | > 100 µM (inactive) | > 100 µM (inactive) | > 100 µM (inactive) |  | > 100 µM (inactive) |  | > 100 µM (inactive)
12 | Nc1nc(SCc2ccccc2Cl)c2[nH]cnc2n1 |  | 91.6 µM (inactive) | 25.5 µM (inactive) | 41.8 µM (inactive) | 74.3 µM (inactive) | 44.2 µM (inactive) | 66.1 µM (inactive) | 48.9 µM (inactive) | 74.8 µM (inactive) | 80.4 µM (inactive) | 48.8 µM (inactive) | 72.3 µM (inactive) | 70.1 µM (inactive) |  | 64.9 µM (inactive) | 65.3 µM (inactive) |  | 15 µM (inactive)
13 | CCOC(=O)C(=O)NCCCN1CCOCC1 | > 100 µM (inactive) | > 100 µM (inactive) | > 100 µM (inactive) | > 100 µM (inactive) | > 100 µM (inactive) | > 100 µM (inactive) | > 100 µM (inactive) | > 100 µM (inactive) | > 100 µM (inactive) | > 100 µM (inactive) | > 100 µM (inactive) | > 100 µM (inactive) | > 100 µM (inactive) | > 100 µM (inactive) |  | > 100 µM (inactive) |  | > 100 µM (inactive)
14 | Nc1nc(=O)[nH]c2c1cnn2C1CCCCO1 (stereo not given) | > 100 µM (inactive) | > 100 µM (inactive) |  | > 100 µM (inactive) | > 100 µM (inactive) | > 100 µM (inactive) | > 100 µM (inactive) | > 100 µM (inactive) | > 100 µM (inactive) | > 100 µM (inactive) | 70.3 µM (inactive) | > 100 µM (inactive) | > 100 µM (inactive) | > 100 µM (inactive) | 56 µM (inactive) | > 100 µM (inactive) |  | > 100 µM (inactive)
15 | C=C=CC(NC(=O)c1ccccc1)(C(=O)O)C(F)(F)F (stereo not given) | > 10 µM (inactive) | > 100 µM (inactive) |  | > 100 µM (inactive) | > 100 µM (inactive) | > 100 µM (inactive) | > 100 µM (inactive) | > 100 µM (inactive) | > 100 µM (inactive) | > 100 µM (inactive) | > 100 µM (inactive) | > 100 µM (inactive) | > 100 µM (inactive) | > 100 µM (inactive) | > 100 µM (inactive) | > 100 µM (inactive) |  | > 100 µM (inactive)
16 | Nc1ncnc2c1ncn2C1CCC(CO)O1 (stereo not given) | > 100 µM (inactive) | > 100 µM (inactive) | > 100 µM (inactive) | > 100 µM (inactive) | > 100 µM (inactive) | > 100 µM (inactive) | > 66.7 µM (inactive) | > 100 µM (inactive) | > 100 µM (inactive) | > 100 µM (inactive) | > 100 µM (inactive) | > 100 µM (inactive) | > 100 µM (inactive) | > 100 µM (inactive) |  | > 100 µM (inactive) | > 77.4 µM (inactive) | > 85.1 µM (inactive)
17 | COc1ccc(/C=C/c2cc(OC)c(OCc3ccccc3)c(OC)c2)cc1 | > 100 µM (inactive) | > 100 µM (inactive) | > 100 µM (inactive) | > 100 µM (inactive) | > 100 µM (inactive) |  | 64 µM (inactive) | > 100 µM (inactive) | > 100 µM (inactive) | > 100 µM (inactive) |  | > 100 µM (inactive) | > 100 µM (inactive) | > 100 µM (inactive) | 26.4 µM (inactive) | > 100 µM (inactive) |  | > 100 µM (inactive)
18 | C#CCC1(C(=O)OCC)C(=O)c2ccccc2N(C)C1=O (stereo not given) | 35.6 µM (inactive) | > 100 µM (inactive) |  | > 100 µM (inactive) |  | > 100 µM (inactive) | 14.7 µM (inactive) | > 100 µM (inactive) | > 100 µM (inactive) | > 100 µM (inactive) | 70.3 µM (inactive) | 67.9 µM (inactive) | 45.4 µM (inactive) | 16.6 µM (inactive) |  | > 100 µM (inactive) |  | 67.5 µM (inactive)
